Results on five molecules are retold here after US12577196B2 (priority 2019, dated 2026).

The subject of data set [1] is Staphylococcus aureus ATCC 6538. Put plainly: MIC determination by broth micro dilution (Example 5). The conditions noted are these: ATCC6538; Staphylococcus aureus ATCC 6538, 4.5×10^3 Cfu/Ml. It counts as cell-based. Here is the method: Minimum Inhibitory Concentration (MIC) Determination by Broth Micro Dilution
(§1) Standardisation of Inoculum
The suspensions were mixed. […] The inoculums were 30 mixed.
(§2) Inoculation and Incubation
100 μl of the initial concentration of the sample was added to the first well.
Staphylococcus aureus ATCC 6538 4.5×10^3 Cfu/Ml

Data set [2] has as its system Candida albicans NCTC 885-653. The data set is classed as cell-based. On the set-up: unit not given beside the values. Here is the method:
(§3) MIC Determination by Broth Micro Dilution
as §1
(§4) The inoculums were mixed.
as §2

Data set [3] is classed as cell-based. The conditions noted are these: Table 12, strain not named. Here is the method:
as §3, §1, §4, §2

Data set [4] has as its system Candida albicans ATCC 10231. The data set is classed as cell-based. The note with it: ATCC10231. The procedure:
as §3, §1, §4, §2

The next data set can be described thus: in vitro. The note with it: human.
For data set [5], the system named is Salmonella enterica serovar Typhimurium ATCC 14028.

Molecules are shown by their SMILES. Values after ≈ are worked out from the molar mass of the structure shown. Read-outs that look alike come from different tables or passages of the source. Bounds are passed on as bounds.

Turning to `Cc1ccc(C(C)C)c(OC(=O)C[N+](C)(C)CCCCCCCCCC[N+](C)(C)CCCCCCCCCC[N+](C)(C)CC(=O)Oc2cc(C(C)C)ccc2C)c1.[Br-].[Cl-].[Cl-]` [Comparative compound 1, reference compound], the MIC in data set [1] amounted to 1.95 µg/mL.

For `Cc1ccc(C(C)C)c(OC(=O)C[N+](C)(C)CCCCCCCCCC[N+](C)(C)CC(=O)Oc2cc(C)ccc2C(C)C)c1` [Formula V, N1,N10-bis(2-(2-isopropyl-5-methylphenoxy)−2-oxoethyl)-N1,N1,N10,N10-tetramethyldecane-1,10-diaminium dichloride], the “MIC (Table 11, head not given)” value in data set [2] is given as 3.9-7.8. Also, the MIC in data set [3] is 0.98 µg/mL; in data set [4], 3.9 to 7.8 µg/mL.

In the case of `Cc1ccc(C(C)C)cc1OC(=O)C[N+](C)(C)CCCCCCCCCC[N+](C)(C)CC(=O)Oc1cc(C(C)C)ccc1C` [Formula IV, N1,N10-bis(2-(5-isopropyl-2-methylphenoxy)−2-oxoethyl)-N1,N1,N10,N10-tetramethyldecane-1,10-diaminium dichloride], in “in vitro”, the CC50 is greater than 120 µg/mL. For the same molecule, the MIC in data set [5] (Salmonella enterica) is 3.9 µg/mL; in data set [5] (Salmonella enterica serovar Typhimurium ATCC 14028 (log 4 conditions)), 3.9; in data set [4], 3.9 to 7.8 µg/mL.

In turn, `Cc1ccc(C(C)C)c(OC(=O)C[N+](C)(C)CCCCCCCCCC[N+](C)(C)CCCCCCCCCC[N+](C)(C)CC(=O)Oc2cc(C)ccc2C(C)C)c1` [Formula VII, N1-(2-(2-isopropyl-5-methylphenoxy)−2-oxoethyl)-N10-(10-((2-(2-isopropyl-5-methylphenoxy)-2-oxoethyl)dimethylammonio)decyl)-N1,N1,N10,N10-tetramethyldecane-1,10-diaminium bromide dichloride] displayed an MIC in data set [1] of 0.98 µg/mL.

`CN[C@H](CC(C)C)C(=O)N[C@H]1C(=O)N[C@@H](CC(N)=O)C(=O)N[C@H]2C(=O)N[C@H]3C(=O)N[C@H](C(=O)N[C@H](C(=O)O)c4cc(O)cc(O)c4-c4cc3ccc4O)[C@H](O)c3ccc(c(Cl)c3)Oc3cc2cc(c3O[C@@H]2O[C@H](CO)[C@@H](O)[C@H](O)[C@H]2O[C@H]2C[C@](C)(N)[C@H](O)[C@H](C)O2)Oc2ccc(cc2Cl)[C@H]1O` [Vancomycin, reference compound]: the MIC in data set [5] (Salmonella enterica) is 78 µg/mL (≈ 53.8 µM).
